# Measurements: patent publication US20190106460A1, “BINDING INHIBITORS OF THE BETA. TRANSDUCIN REPEAT-CONTAINING PROTEIN” (priority 2011, published 2019)
# “Also recorded” adds a separate entry of the source. Non-standard residues stand in square brackets, D forms with d. Residues, ends and D or L forms follow the SMILES beside them. *: point of attachment. Benzenesulfonyl(4-OMe) = COc1ccc(S(=O)(=O)*)cc1; Arachidoyl = CCCCCCCCCCCCCCCCCCCC(=O)*; Phe(3-F) = N[C@@H](Cc1cccc(F)c1)C(=O)O; Stearoyl = CCCCCCCCCCCCCCCCCC(=O)*; Tos = Cc1ccc(S(=O)(=O)*)cc1; Ahx = NCCCCCC(=O)O
# Tests used:
# Format in all cases: cell-based
# LNCaP (prostate cancer) = experiment: xCELLigence cell viability / proliferation, LNCaP
# Description: Example 9—Cell Based Activity of Cell Permeable Compounds on the xCELLigence Platform
# The effects of the compounds shown in FIGS. 14A-14B were tested on cancer cell lines MCF7 (breast cancer) and LNCaP (prostate cancer) using the xCELLigence platform (http://www.roche-applied-science.com/sis/xcelligence/ezhome.html). This method of measuring cell viability via measuring cell index is known in the art.
# Different doses of the compounds were tested on MCF7 cells to see if there would be an effect on their cell viability.
# The control compound was compared to its partner active compound (UBP037).
# (§1) xCELLigence Method • Before starting the experiment add 50 μL of medium (RPMI 1640, 10% fetal bovine serum, 100 units/mL penicillin, 100 ug/mL streptomycin, and 2 mmol/L glutamine, all from GIBCO) to each well of 96 well E-plate (Roche) and place the plate in the xCELLigence platform to measure the background. • LNCaP/PNT-1 cells are seeded (LNCaPs 80000 cells/well; PNT1 3000 cells/well) in the plate in complete medium and equilibrated for 60 mins at RT before returning to the xCELLigence platform and incubating at 37° C./5% CO2. • 24 hrs after seeding, remove 100 μL of medium was removed from each well and cells were treated with compounds or DMSO diluted in 100 μL of OptiMEM (GIBCO). • Replace the plate in the xCELLigence platform • Cells growth can then be monitored in real-time by the cell index profile on the xCELLigence readout screen • Cell growth can be expressed as normalized cell index and doubling time/slope calculated using the RTCA software.
# PDCD4 in MCF7 cells [1] = experiment: In-cell western assay for PDCD4 accumulation; settings: MCF7, treatment with cell permeable compound
# Description: In-Cell Western Assay for PDCD4 Accumulation.
# To measure this an in-cell western assay was used and the peptidomimetics were delivered to the cells by nucleofection.
# MCF7 cells were grown in 10 cm dishes in 10 ml DMEM+10% FBS and 1% Pen/Strep at 37° C./5% CO2. On the day of nucleofection, the dish was washed with 90% confluent MCF7 cells with 5 ml PBS, then 3 ml of Trypsin/EDTA was added and incubated at 37° C./5% CO2 for approximately 5 mins until the cells detached from the plastic. 7 ml of normal growth media was added and the number of cells present was counted using a haemocytometer.
# The cells were centrifuged cells at 90 g for 10 mins at RT and the supernatant was removed. 100 μl of Nucleofection Buffer V+ Supplement was added (Lonza Biologics Cat no VCA-1003) per 8×10^5 cells, and the cells were added to peptidomimetics dissolved in <3% DMSO.
# The cell/peptidomimetic mix was added to cuvettes supplied for the nucleofector and the sample was nucleofected using the recommended MCF7 programme for high cell viability (i.e. E-014). 500 μl of TPA (12-O-tetradecanoylphorbol-13-acetate)-supplemented growth media (i.e. DMEM/10% FBS/1% Pen-Strep/10 nM TPA) was added to the cuvette and 100 μl of this solution was transferred to a well of a 96 well plate and incubated at 37° C./5% CO2 for 8 hours.
# The celled were fixed by removing the growth media, adding 3.7% Formaldehyde in PBS and incubating at RT for 20 mins. The plate was washed three times in PBS. And the cells were permeabilised by washing 5× for 5 mins each in PBS+0.1% Triton X-100.
# The cells were blocked by adding 3% BSA in PBS-Tween to the cells and incubating at RT for 1.5 hours. An anti-PDCD4 antibody (Abcam cat no: ab80590) was added at a concentration of 1:1000 in 3% BSA in PBS-T (50 ul/well) and incubated at RT for 2.5 hours. The cells were washed 5× for 5 mins each with PBS-T before the secondary antibody (LiCor Biosciences Donkey Anti-Rabbit IRDye 800CW cat no 926-32213) was added at a concentration of 1:1000, along with the DNA stain DRAQ5 at a concentration of 1:10000, in 3% BSA in PBS-T (50 ul/well) and incubated at RT for 1 hour, protected from light.
# The cells were washed cells 5× for 5 mins each with PBS-T and all the liquid was removed from the wells before the plate was read on the LiCor Biosciences Odyssey at 700 nm and 800 nm. The reading was normalised in the 800 nm channel to that in the 700 nm channel. The data are shown in FIG. 12, where DMSO was used as a negative control and 20 μM MG132 was used as a positive control. The data is presented as percentage activity with DMSO=0% and […]=100% activity. Error bars represent standard deviation from 3 replicates.
# The compounds shown in FIGS. 14A-14B were synthesised to improve cell permeability. […] FIG. 16 compares the round II compounds (shown in FIGS. 14A-14B) with UBP036 in this assay. […] Inhibition of βTrCP, which is responsible for the degradation of both PDCD4 and β-catenin, causes a concomitant stabilisation and accumulation of levels of these proteins which can be measured by in cell western assay.
# PDCD4 in MCF7 cells [2] = experiment: Traditional western blot for PDCD4, MCF7
# Text: […]
# PDCD4 in LNCaP cells = experiment: Traditional western blot for PDCD4, LNCaP
# Text: […]
# PNT-1 cell line = experiment: xCELLigence cell growth, non-malignant PNT-1
# Description: as §1
# The susceptibility of cancer cell lines versus non-cancer cell lines following treatment with the compounds was also investigated.
SMILES,"cell growth / proliferation, xCELLigence (LNCaP (prostate cancer))","accumulation of PDCD4, in cell western (PDCD4 in MCF7 cells [1])","PDCD4 accumulation, traditional western blot (PDCD4 in MCF7 cells [2])","PDCD4 accumulation, traditional western blot (PDCD4 in LNCaP cells)","cell growth, xCELLigence (PNT-1 cell line)"
"CCCCCCCCCCCCCCCCCC(=O)NCCCC[C@H](NC(=O)CCCCCNC(=O)[C@H](Cc1c[nH]c2ccccc12)NC(=O)CNC(=O)[C@H](CCC(=O)O)NC(=O)[C@H](Cc1ccccc1)NC(=O)[C@@H](CC(=O)O)NC(=O)[C@H](CCC(=O)O)NS(=O)(=O)c1ccc(C)cc1)C(N)=O [Ts-EdFEGW-Ahx-K(Stearic)-NH2, reference compound] (Tos-E[dD]FEGW[Ahx]K(Stearoyl)-NH2)",levels of cell proliferation similar to that seen with DMSO,,,,
"CCCCCCCCCCCCCCCCCC(=O)NCCCC[C@H](NC(=O)CCCCCNC(=O)[C@H](CCC(=O)O)NC(=O)[C@H](Cc1c[nH]c2ccccc12)NC(=O)[C@H](Cc1cccc(F)c1)NC(=O)CNC(=O)[C@H](CCC(=O)O)NC(=O)[C@@H](CC(=O)O)NS(=O)(=O)c1ccc(OC)cc1)C(N)=O [UBP037, 4-(MeO)PhSO2-dEGF(3F)WE-Ahx-K(NHCOC17H35)-NH2] ({Benzenesulfonyl(4-OMe)}-[dD]EG[Phe(3-F)]WE[Ahx]K(Stearoyl)-NH2)",inhibit the growth; also recorded: severely restricts the proliferation,inconclusive results,exhibited cellular activity,exhibited cellular activity,far less effect
"CCCCCCCCCCCCCCCCCCCC(=O)NCCCC[C@H](NC(=O)CCCCCNC(=O)[C@H](CCC(=O)O)NC(=O)[C@H](Cc1c[nH]c2ccccc12)NC(=O)[C@H](Cc1cccc(F)c1)NC(=O)CNC(=O)[C@H](CCC(=O)O)NC(=O)[C@@H](CC(=O)O)NS(=O)(=O)c1ccc(OC)cc1)C(N)=O [UBP038, 4-(MeO)PhSO2-dEGF(3F)WE-Ahx-K(NHCOC19H39)-NH2] ({Benzenesulfonyl(4-OMe)}-[dD]EG[Phe(3-F)]WE[Ahx]K(Arachidoyl)-NH2)",inhibit the growth,inconclusive results,exhibited cellular activity,exhibited cellular activity,far less effect
